According to patent publication US20210121376A1, “PEPTIDES ENCAPSULATED IN LECITHIN AND ALGINATE” (INFINITEC ACTIVOS, S.L., priority 2018, published 2021):
Peptide text beside a SMILES is read from it. * marks the point of attachment. Palmitoyl = CCCCCCCCCCCCCCCC(=O)*; X1 = NCOCCOCCOCCCN*

Legend:
[1] = target: T1, papain (Carica papaya, UniProt P00784); assay: Peptide degradation by proteases (Example 8a, PP-4 peptide); assay type: in vitro ADME
T1 sequence (P00784 134-345): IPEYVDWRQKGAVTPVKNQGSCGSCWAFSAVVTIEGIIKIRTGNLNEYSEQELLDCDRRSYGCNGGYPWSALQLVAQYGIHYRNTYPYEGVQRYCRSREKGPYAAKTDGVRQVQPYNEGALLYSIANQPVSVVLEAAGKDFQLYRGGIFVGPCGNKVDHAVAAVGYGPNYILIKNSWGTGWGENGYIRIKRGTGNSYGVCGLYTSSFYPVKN
Description: a) 5 mg of each of the formulations of Example 1b and Comparative example 6b were incubated at 40° C. with 20 mg of papain. Samples were taken at study times 0 h, 0.3 h, 0.6 h, and 5 h after the addition of papain, centrifuged at 1400 rpm for 1 min, and the supernatant was filtered using a 0.45 μm filter and analyzed by HPLC.
(§1) HPLC analysis was carried out in a Waters 996 instrument with a diode array detector equipped with Waters 2695 separations module and Millenium software; an Xbridge BEH130 C18 4.6×100 mm 3.5 μm reversed phase column by Waters was used. UV detection was performed at 220 nm and a mobile phase B gradient of 5 to 100% was performed for 8 minutes at 1.0 ml/min of flow. Under these conditions, the retention time of the peptide of formula (I) wherein R is palmitoyl (Matrixyl®, PP-4) is 6.4 min. Mobile phase A: 0.045% TFA/H2O, mobile phase B: 0.036% TFA/acetonitrile.

[2] = target: T1, papain; assay: Peptide degradation by proteases (Example 8b, PH-26 peptide); assay type: in vitro ADME
Description: b) 20 mg of papain were added to the formulation of Comparative example 6c, and 1.5 mg of papain were added to a solution of 40 mg of the formulation of Example 1c in 1.0 mL of PBS buffer. Both samples were incubated at 40° C. Aliquots were taken at study times 0 h, 0.17 h, 0.3 h and 24 h, after the addition of papain, centrifuged at 1400 rpm for 1 min, and the supernatant was filtered using a 0.45 μm filter and analyzed by HPLC.
as §1

## CCCCCCCCCCCCCCCC(=O)N[C@@H](CCCCN)C(=O)N[C@H](C(=O)N[C@H](C(=O)N[C@@H](CCCCN)C(=O)N[C@@H](CO)C(=O)O)[C@@H](C)O)[C@@H](C)O [PP-4, Palm-L-Lys-L-Thr-L-Thr-L-Lys-L-Ser-OH] (Palmitoyl-KTTKS-OH)
[1]
  degradation with papain (in words): completely degraded

## CCCCCCCCCCCCCCCC(=O)N[C@@H](CCCCN)C(=O)N[C@@H](C)C(=O)N[C@@H](CCC(N)=O)C(=O)N[C@@H](CCCCN)C(=O)N[C@@H](CCCNC(=N)N)C(=O)N[C@@H](Cc1ccccc1)C(=O)NCCCOCCOCCOCN [PH-26 peptide, R1-L-Lys-L-Ala-L-Gln-L-Lys-L-Arg-L-Phe-NH—(CH2)3—O—(CH2)2—O—(CH2)2—O—(CH2)—NH2] (Palmitoyl-KAQKRF-X1; N-terminus and C-terminus assumed)
[2]
  degradation with papain (in words): nearly completely degraded
